This note sets out measurements from patent US11559231B2, “System and method for determining a discrimination index for fear-potentiated startle” (Rosalind Franklin University of Medicine and Science, priority 2018, dated 2023).

Where a name gives a salt, the structure may show the parent alone.

In the assay the target is T1, OT receptors (OTR) in the BNSTdl (Rattus norvegicus, UniProt P70536).
T1 construct: OT (100 ng), OTA (200 ng), or ACSF (all in volume of 0.5 μl per side) was injected bilaterally into the BNSTdl; from tissue; host or cells: brain (dorsolateral bed nucleus of the stria terminalis) of live male Sprague-Dawley rats
T1 sequence (P70536 1-388): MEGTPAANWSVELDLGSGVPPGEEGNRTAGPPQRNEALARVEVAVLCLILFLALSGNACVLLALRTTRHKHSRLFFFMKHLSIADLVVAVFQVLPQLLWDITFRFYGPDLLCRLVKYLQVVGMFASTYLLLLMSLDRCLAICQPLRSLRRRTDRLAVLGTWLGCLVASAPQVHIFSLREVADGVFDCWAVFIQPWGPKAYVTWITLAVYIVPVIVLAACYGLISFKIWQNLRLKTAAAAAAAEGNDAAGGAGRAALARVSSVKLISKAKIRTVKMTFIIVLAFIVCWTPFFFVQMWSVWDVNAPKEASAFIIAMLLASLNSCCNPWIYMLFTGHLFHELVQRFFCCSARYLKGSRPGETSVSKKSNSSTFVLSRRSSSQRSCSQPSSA
Put plainly: Fear-potentiated startle (FPS): intra-BNSTdl OT or OTA before cued fear conditioning, then fear recall testing. It is filed as in vivo. To be noted: for TREATMENT effect on cued fear (percentage change of startle amplitude): OT 100 ng or OTA 200 ng bilateral intra-BNSTdl 10 min before fear conditioning, recall 24 h later in context B, P=0.0981; for TREATMENT effect on cued fear (percentage change of startle amplitude) / total discrimination index (DI) for the FPS session: one-way ANOVA ACSF/OT/OTA; for total discrimination index (DI) for the FPS session: all trials, P=0.1492; for discrimination between cued and non-cued fear (summary statement): infused into the BNSTdl before fear conditioning, FPS; for TREATMENT effect on cued fear (percent change), negative controls: injection sites outside the BNST, P=0.3990; for discrimination index over four time blocks, negative controls: injection sites outside the BNSTdl, P=0.5828; for discrimination index over four time blocks, negative controls / startle amplitude, light-noise vs noise-alone trials: effect of TREATMENT: two-way repeated measures ANOVA; for mean shock reactivity during the fear conditioning session / TREATMENT effect on percentage change of contextual fear / TREATMENT effect on percentage change of non-cued fear / startle amplitude, light-noise vs noise-alone trials: effect of TREATMENT: intra-BNSTdl ACSF, OT 100 ng, OTA 200 ng; for mean shock reactivity during the fear conditioning session: P=0.8684; for TREATMENT effect on percentage change of contextual fear: context A, day 5; for TREATMENT effect on percentage change of non-cued fear: context B, P=0.8993; for startle amplitude, light-noise vs noise-alone trials: effect of TREATMENT: P=0.8478. Here is the method: A total of 75 rats were used for FPS experiments. The ACSF-treated group consisted of 23 rats, whereas there were 14 OT and 16 OTR antagonist (OTA)-treated rats included in the main analysis. […] These rats were analyzed as negative controls.
Stereotaxic surgery technique was identical to above except that guide cannulas were implanted bilaterally instead of a microdialysis probe (Moaddab and Dabrowska, 2017).
OT (100 ng), OTA (200 ng), or ACSF (all in volume of 0.5 μl per side) was injected bilaterally into the BNSTdl through a microinjector (28-gauge, 7 mm length; Plastics One, Roanoke, Va.) as described before (Moaddab and Dabrowska, 2017). Doses of OT and OTA were chosen based on previous studies on fear and anxiety in rats (Bale et al., 2001; Toth et al., 2012; Lahoud and Maroun, 2013; Neumann and Slattery, 2016; Moaddab and Dabrowska, 2017). Rats were assigned based on a second pre-test ASR into three treatment groups. Fear conditioning sessions were performed 10 min after the intra-BNSTdl injections.
FPS procedures were modified based on previous studies and according to protocol described in detail before (Walker et al., 2009; Missig et al., 2010; Ayers et al., 2011; Moaddab and Dabrowska, 2017). On days 1 and 2, rats underwent two pre-test sessions. On day 3 (fear conditioning), animals were placed in cylindrical enclosures containing a grid floor conveying foot shocks (as above). After 5 min acclimation, animals received 10 presentations of a 3.7 s cue light (CS), each co-terminating with a 0.5 s foot shock (US; 0.5 mA, inter-trial-interval 60-180 s). Background noise was absent during the conditioning session. Enclosures and chambers were cleaned with PREempt RTU disinfectant solution (Virox Technologies, Oakville, Canada) before and after each fear […] conditioning session (context A). Twenty-four hours later, on day 4, rats were tested for FPS expression (recall test) in context B. After 5 min of acclimation, they were exposed to 50 startle-eliciting WNBs (as above) and levels of cued and non-cued fear were measured. A background white noise of 70 dB continuously played throughout the session. The session consisted of 10 baseline startle trials (excluded from the analysis) followed by an additional 40 trials, with half presented in the presence of the cue light (CS+, light-noise) and the other half without the CS (CS-, noise-alone) in a pseudorandom order (inter-trial-interval 30 s). To make context A distinct from context B, enclosures and chambers were cleaned with 70% ethanol before and after the […] (different than in fear conditioning). The grid floor was also removed from the enclosures during cued FPS testing. In addition, a different experimenter from the training session performed the FPS testing session. On day 5, the same rats were tested for contextual fear recall in context A, where after 10 baseline startle trials (excluded from the analysis), startle amplitude was measured during 40 additional CS− trials (noise-alone, inter-trial-interval 30 s, FIG. 5, C).
Startle amplitude was defined as the maximum peak voltage within the first 200 ms after onset of the WNB. Shock reactivity amplitude was recorded during the fear conditioning session and was defined as the maximum peak voltage that occurred during the 500 ms foot shock delivery. Cued, non-cued, and contextual fear, were calculated as percent change scores of startle amplitude based on previous FPS studies (Walker et al., 2009; Missig et al., 2010; Ayers et al., 2011; Moaddab and Dabrowska, 2017).

Take `CC[C@H](C)[C@@H]1NC(=O)[C@H](Cc2ccc(O)cc2)NC(=O)[C@@H](N)CSSC[C@@H](C(=O)N2CCC[C@H]2C(=O)N[C@@H](CC(C)C)C(=O)NCC(N)=O)NC(=O)[C@H](CC(N)=O)NC(=O)[C@H](CCC(N)=O)NC1=O` [OT, OT acetate salt]: the “TREATMENT effect on cued fear (percentage change of startle amplitude)” value is on record as “a trend in the TREATMENT effect on cued fear”; the “total discrimination index (DI) for the FPS session” value was “not significantly different”; the “discrimination between cued and non-cued fear (summary statement)” value was “significantly increases discrimination between cued and non-cued fear”; the “TREATMENT effect on cued fear (percent change), negative controls” value was “no significant effect of TREATMENT on cued fear”. The “discrimination index over four time blocks, negative controls” value is reported as “no significant main effect of TREATMENT”; the “mean shock reactivity during the fear conditioning session” value is reported as “not different”; the “TREATMENT effect on percentage change of contextual fear” value was “no TREATMENT effect”; the “TREATMENT effect on percentage change of non-cued fear” value is on record as “no TREATMENT effect”. The “startle amplitude, light-noise vs noise-alone trials: effect of TREATMENT” value is on record as “no main effect of TREATMENT”. Moreover, the “discrimination index in the fourth time block of fear memory recall, vs ACSF-treated group” value (OT 100 ng intra-BNSTdl, Bonferroni post hoc, P=0.0121) is given as “significant differences in the discrimination indices”.
For “(d(CH2)5^1, D-Tyr^2, Thr4, Orn8, des-Gly-NH2 9)-vasotocin trifluoroacetate salt [OTA]”, the “TREATMENT effect on cued fear (percentage change of startle amplitude)” value is “a trend in the TREATMENT effect on cued fear”; the “total discrimination index (DI) for the FPS session” value is “not significantly different”; the “discrimination between cued and non-cued fear (summary statement)” value is “disables this discrimination”; the “TREATMENT effect on cued fear (percent change), negative controls” value is reported as “no significant effect of TREATMENT on cued fear”. Further, the “discrimination index over four time blocks, negative controls” value is “no significant main effect of TREATMENT”; the “mean shock reactivity during the fear conditioning session” value is reported as “not different”; the “TREATMENT effect on percentage change of contextual fear” value is on record as “no TREATMENT effect”; the “TREATMENT effect on percentage change of non-cued fear” value is “no TREATMENT effect”. Further, the “startle amplitude, light-noise vs noise-alone trials: effect of TREATMENT” value was “no main effect of TREATMENT”. For the same compound, the “discrimination index in the fourth time block of fear memory recall, OT vs OTA-treated groups” value (OT 100 ng vs OTA 200 ng intra-BNSTdl, Bonferroni post hoc, P=0.0007) was “significant differences in the discrimination indices”. Also, under “OTA 200 ng intra-BNSTdl, un-paired t-test vs ACSF, P=0.0763”, the “OTA effect on cued fear vs ACSF” value is “a trend in the OTA effect on cued fear”.
